From US20260070945A1, “MACROCYCLIC IMMUNOMODULATORS” (Bristol-Myers Squibb Company, priority 2022, published 2026) come the findings set out here.

Where a SMILES comes first, the peptide text is derived from it. Bridges are numbered along the chain shown (N, C = ends). [ ]: non-standard residue; d: D form. The star is where a group is joined. Bip = N[C@@H](Cc1ccc(-c2ccccc2)cc1)C(=O)O; hArg = N=C(N)NCCCC[C@H](N)C(=O)O; 4Pal = N[C@@H](Cc1ccncc1)C(=O)O; Cha = N[C@@H](CC1CCCCC1)C(=O)O; Cit = NC(=O)NCCC[C@H](N)C(=O)O; Carboxymethyl = O=C(O)C*; NMeA = CN[C@@H](C)C(=O)O; Orn = NCCC[C@H](N)C(=O)O; Aun = NCCCCCCCCCCC(=O)O; Dab = NCC[C@H](N)C(=O)O; Dap = NC[C@H](N)C(=O)O; AEEA = NCCOCCOCC(=O)O

This assay deals with T1, PD-1/PD-L1 interaction (PE-labeled human PD-L1-Ig binding to Jurkat cell line over-expressing human PD-1) (Homo sapiens, UniProt Q15116).
T1 construct: expressed in transfected cells; host or cells: Jurkat
T1 sequence (Q15116 25-288): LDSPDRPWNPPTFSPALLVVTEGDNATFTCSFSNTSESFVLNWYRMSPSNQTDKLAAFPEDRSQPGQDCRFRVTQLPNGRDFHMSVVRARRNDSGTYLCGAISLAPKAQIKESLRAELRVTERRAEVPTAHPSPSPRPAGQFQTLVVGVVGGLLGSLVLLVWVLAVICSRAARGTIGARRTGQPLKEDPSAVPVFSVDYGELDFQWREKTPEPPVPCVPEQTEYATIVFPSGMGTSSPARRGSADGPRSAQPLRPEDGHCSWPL
Kind of assay: Jurkat-PD-1 Cell Binding High-Content Screening Assay (CBA). Particulars: Jurkat-hPD-1 cells, PE-labeled PD-L1-Ig 20 nM final; read-out: Jurkat HPD1 PDL1 IC50. Put shortly: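 High-content imaging read-out of PE-PD-L1-Ig binding (20 nM final, 1 h) to Jurkat-hPD-1 cells, after 2 h compound exposure at 37 °C in DMEM with 10% FCS. Nuclei counterstained with Hoechst 33342 after paraformaldehyde fixation.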
`CC(C)C[C@@H]1NC(=O)[C@H](Cc2c[nH]c3ccccc23)NC(=O)[C@H](CC(=O)O)NC(=O)[C@H](Cc2ccc(O)cc2)NC(=O)[C@H](Cc2ccncc2)NC(=O)CSC[C@@H](C(=O)NCCOCCOCC(=O)N[C@@H](CCCN)C(=O)NCCCCCCCCCCC(=O)O)NC(=O)[C@H](CCCN)NC(=O)[C@H](C(C)C)NC(=O)[C@H](CC2CCCCC2)NC(=O)[C@H](CCN)NC(=O)[C@@H](CC(C)C)NC(=O)[C@H](C)N(C)C(=O)[C@H](C(C)C)NC(=O)[C@H](Cc2ccc(-c3ccccc3)cc2)NC1=O` [Example 2163] ({CH2CO}-[4Pal]YDWL[Bip]V[NMeA][dL][Dab][Cha]V[Orn]C[AEEA][Orn][Aun]-OH; thioether N-14): the IC50 came to 17.6 nM.

With `CC(C)C[C@@H]1NC(=O)[C@H](Cc2c[nH]c3ccccc23)NC(=O)[C@H](CC(=O)O)NC(=O)[C@H](Cc2ccncc2)NC(=O)[C@H](Cc2ccc(OCC(=O)O)cc2)NC(=O)CSC[C@@H](C(=O)NCCOCCOCC(=O)N[C@@H](CN)C(=O)NCCCCCCCCCCC(=O)O)NC(=O)[C@H](CCCNC(N)=O)NC(=O)[C@H](C(C)C)NC(=O)[C@H](CC2CCCCC2)NC(=O)[C@H](CCN)NC(=O)[C@@H](CC(C)C)NC(=O)[C@H](C)N(C)C(=O)[C@H](C(C)C)NC(=O)[C@H](Cc2ccc(-c3ccccc3)cc2)NC1=O` [Example 2164] ({CH2CO}-Y(Carboxymethyl)[4Pal]DWL[Bip]V[NMeA][dL][Dab][Cha]V[Cit]C[AEEA][Dap][Aun]-OH; thioether N-14), the IC50 came out at 11.9 nM.

As to `CC(C)C[C@@H]1NC(=O)[C@H](Cc2c[nH]c3ccccc23)NC(=O)[C@H](CC(=O)O)NC(=O)[C@H](Cc2ccncc2)NC(=O)[C@H](Cc2ccc(OCC(=O)O)cc2)NC(=O)CSC[C@@H](C(=O)N[C@@H](CCCN)C(=O)NCCOCCOCC(=O)NCCCCCCCCCCC(=O)O)NC(=O)[C@H](CCCNC(N)=O)NC(=O)[C@H](C(C)C)NC(=O)[C@H](CC2CCCCC2)NC(=O)[C@H](CN)NC(=O)[C@@H](CC(C)C)NC(=O)[C@H](C)N(C)C(=O)[C@H](C(C)C)NC(=O)[C@H](Cc2ccc(-c3ccccc3)cc2)NC1=O` [Example 2166] ({CH2CO}-Y(Carboxymethyl)[4Pal]DWL[Bip]V[NMeA][dL][Dap][Cha]V[Cit]C[Orn][AEEA][Aun]-OH; thioether N-14), the IC50 was 24.7 nM.

Take `CC(C)C[C@@H]1NC(=O)[C@H](Cc2c[nH]c3ccccc23)NC(=O)[C@H](CC(=O)O)NC(=O)[C@H](Cc2ccncc2)NC(=O)[C@H](Cc2ccc(OCC(=O)O)cc2)NC(=O)CSC[C@@H](C(=O)N[C@@H](CCCNC(N)=O)C(=O)NCCOCCOCC(=O)NCCCCCCCCCCC(=O)O)NC(=O)[C@H](CCCNC(N)=O)NC(=O)[C@H](C(C)C)NC(=O)[C@H](CC2CCCCC2)NC(=O)[C@H](CCN)NC(=O)[C@@H](CC(C)C)NC(=O)[C@H](C)N(C)C(=O)[C@H](C(C)C)NC(=O)[C@H](Cc2ccc(-c3ccccc3)cc2)NC1=O` [Example 2167] ({CH2CO}-Y(Carboxymethyl)[4Pal]DWL[Bip]V[NMeA][dL][Dab][Cha]V[Cit]C[Cit][AEEA][Aun]-OH; thioether N-14): the IC50 was found to be 24.4 nM.

Turning to `CC(C)C[C@@H]1NC(=O)[C@H](Cc2c[nH]c3ccccc23)NC(=O)[C@H](CC(=O)O)NC(=O)[C@H](Cc2ccncc2)NC(=O)[C@H](Cc2ccc(OCC(=O)O)cc2)NC(=O)CSC[C@@H](C(=O)NCCOCCOCC(=O)N[C@@H](CCCN)C(=O)NCCCCCCCCCCC(=O)O)NC(=O)[C@H](CCCNC(N)=O)NC(=O)[C@H](C(C)C)NC(=O)[C@H](CC2CCCCC2)NC(=O)[C@H](CCN)NC(=O)[C@@H](CC(C)C)NC(=O)[C@H](C)N(C)C(=O)[C@H](C(C)C)NC(=O)[C@H](Cc2ccc(-c3ccccc3)cc2)NC1=O` [Example 2168] ({CH2CO}-Y(Carboxymethyl)[4Pal]DWL[Bip]V[NMeA][dL][Dab][Cha]V[Cit]C[AEEA][Orn][Aun]-OH; thioether N-14), the 50% inhibitory concentration (IC50) is 9 nM.

Consider `CC(=O)NCCC[C@@H]1NC(=O)[C@H](C(C)C)NC(=O)[C@H](CC2CCCCC2)NC(=O)[C@H](CCN)NC(=O)[C@@H](CC(C)C)NC(=O)[C@H](C)N(C)C(=O)[C@H](C(C)C)NC(=O)[C@H](Cc2ccc(-c3ccccc3)cc2)NC(=O)[C@H](CC(C)C)NC(=O)[C@H](Cc2c[nH]c3ccccc23)NC(=O)[C@H](CC(=O)O)NC(=O)[C@H](Cc2ccncc2)NC(=O)[C@H](Cc2ccc(OCC(=O)O)cc2)NC(=O)CSC[C@@H](C(=O)NCC(=O)NCCOCCOCC(=O)N[C@@H](CN)C(=O)NCCCCCCCCCCC(=O)O)NC1=O` [Example 2169] ({CH2CO}-Y(Carboxymethyl)[4Pal]DWL[Bip]V[NMeA][dL][Dab][Cha]V[Orn](Ac)CG[AEEA][Dap][Aun]-OH; thioether N-14), for which the IC50 turned out to be 12.6 nM.

Consider `CC(C)C[C@@H]1NC(=O)[C@H](Cc2c[nH]c3ccccc23)NC(=O)[C@H](CC(=O)O)NC(=O)[C@H](Cc2ccncc2)NC(=O)[C@H](Cc2ccc(OCC(=O)O)cc2)NC(=O)CSC[C@@H](C(=O)NCC(=O)NCCOCCOCC(=O)N[C@@H](CCN)C(=O)NCCCCCCCCCCC(=O)O)NC(=O)[C@H](CCCNC(N)=O)NC(=O)[C@H](C(C)C)NC(=O)[C@H](CC2CCCCC2)NC(=O)[C@H](CCN)NC(=O)[C@@H](CC(C)C)NC(=O)[C@H](C)N(C)C(=O)[C@H](C(C)C)NC(=O)[C@H](Cc2ccc(-c3ccccc3)cc2)NC1=O` [Example 2170] ({CH2CO}-Y(Carboxymethyl)[4Pal]DWL[Bip]V[NMeA][dL][Dab][Cha]V[Cit]CG[AEEA][Dab][Aun]-OH; thioether N-14), for which the IC50 came out at 8.6 nM.

As for `CC(C)C[C@@H]1NC(=O)[C@H](Cc2c[nH]c3ccccc23)NC(=O)[C@H](CC(=O)O)NC(=O)[C@H](Cc2ccncc2)NC(=O)[C@H](Cc2ccc(OCC(=O)O)cc2)NC(=O)CSC[C@@H](C(=O)NCC(=O)NCCOCCOCC(=O)N[C@@H](CCCCN)C(=O)NCCCCCCCCCCC(=O)O)NC(=O)[C@H](CCCNC(N)=O)NC(=O)[C@H](C(C)C)NC(=O)[C@H](CC2CCCCC2)NC(=O)[C@H](CCN)NC(=O)[C@@H](CC(C)C)NC(=O)[C@H](C)N(C)C(=O)[C@H](C(C)C)NC(=O)[C@H](Cc2ccc(-c3ccccc3)cc2)NC1=O` [Example 2172] ({CH2CO}-Y(Carboxymethyl)[4Pal]DWL[Bip]V[NMeA][dL][Dab][Cha]V[Cit]CG[AEEA]K[Aun]-OH; thioether N-14), the IC50 is 13 nM.

For the compound `CC(C)C[C@@H]1NC(=O)[C@H](Cc2c[nH]c3ccccc23)NC(=O)[C@H](CC(=O)O)NC(=O)[C@H](Cc2ccncc2)NC(=O)[C@H](Cc2ccc(OCC(=O)O)cc2)NC(=O)CSC[C@@H](C(=O)NCC(=O)NCCOCCOCC(=O)N[C@@H](CCCNC(N)=O)C(=O)NCCCCCCCCCCC(=O)O)NC(=O)[C@H](CCCNC(N)=O)NC(=O)[C@H](C(C)C)NC(=O)[C@H](CC2CCCCC2)NC(=O)[C@H](CCN)NC(=O)[C@@H](CC(C)C)NC(=O)[C@H](C)N(C)C(=O)[C@H](C(C)C)NC(=O)[C@H](Cc2ccc(-c3ccccc3)cc2)NC1=O` [Example 2173] ({CH2CO}-Y(Carboxymethyl)[4Pal]DWL[Bip]V[NMeA][dL][Dab][Cha]V[Cit]CG[AEEA][Cit][Aun]-OH; thioether N-14), the IC50 was determined as 15.6 nM.

Turning to `CC(C)C[C@@H]1NC(=O)[C@H](Cc2c[nH]c3ccccc23)NC(=O)[C@H](CC(=O)O)NC(=O)[C@H](Cc2ccncc2)NC(=O)[C@H](Cc2ccc(OCC(=O)O)cc2)NC(=O)CSC[C@@H](C(=O)NCCOCCOCC(=O)N[C@@H](CCCNC(N)=O)C(=O)NCCCCCCCCCCC(=O)O)NC(=O)[C@H](CCCNC(N)=O)NC(=O)[C@H](C(C)C)NC(=O)[C@H](CC2CCCCC2)NC(=O)[C@H](CCN)NC(=O)[C@@H](CC(C)C)NC(=O)[C@H](C)N(C)C(=O)[C@H](C(C)C)NC(=O)[C@H](Cc2ccc(-c3ccccc3)cc2)NC1=O` [Example 2174] ({CH2CO}-Y(Carboxymethyl)[4Pal]DWL[Bip]V[NMeA][dL][Dab][Cha]V[Cit]C[AEEA][Cit][Aun]-OH; thioether N-14), the IC50 is 16.4 nM.

In the case of `CC(C)C[C@@H]1NC(=O)[C@H](Cc2c[nH]c3ccccc23)NC(=O)[C@H](CC(=O)O)NC(=O)[C@H](Cc2ccc(OCC(=O)O)cc2)NC(=O)[C@H](CCCCNC(=N)N)NC(=O)CSC[C@@H](C(=O)N[C@@H](CCCN)C(=O)NCCOCCOCC(=O)NCCCCCCCCCCC(=O)O)NC(=O)[C@H](CCCNC(N)=O)NC(=O)[C@H](C(C)C)NC(=O)[C@H](CC2CCCCC2)NC(=O)[C@H](CN)NC(=O)[C@@H](CC(C)C)NC(=O)[C@H](C)N(C)C(=O)[C@H](C(C)C)NC(=O)[C@H](Cc2ccc(-c3ccccc3)cc2)NC1=O` [Example 2177] ({CH2CO}-[hArg]Y(Carboxymethyl)DWL[Bip]V[NMeA][dL][Dap][Cha]V[Cit]C[Orn][AEEA][Aun]-OH; thioether N-14), the IC50 came to 25.9 nM.

For `CC(C)C[C@@H]1NC(=O)[C@H](Cc2c[nH]c3ccccc23)NC(=O)[C@H](CC(=O)O)NC(=O)[C@H](Cc2ccc(OCC(=O)O)cc2)NC(=O)[C@H](CCCCNC(=N)N)NC(=O)CSC[C@@H](C(=O)NCC(=O)NCCOCCOCC(=O)N[C@@H](CN)C(=O)NCCCCCCCCCCC(=O)O)NC(=O)[C@H](CCCNC(N)=O)NC(=O)[C@H](C(C)C)NC(=O)[C@H](CC2CCCCC2)NC(=O)[C@H](CCN)NC(=O)[C@@H](CC(C)C)NC(=O)[C@H](C)N(C)C(=O)[C@H](C(C)C)NC(=O)[C@H](Cc2ccc(-c3ccccc3)cc2)NC1=O` [Example 2178] ({CH2CO}-[hArg]Y(Carboxymethyl)DWL[Bip]V[NMeA][dL][Dab][Cha]V[Cit]CG[AEEA][Dap][Aun]-OH; thioether N-14), the IC50 stood at 8.5 nM.

Take `CC(C)C[C@@H]1NC(=O)[C@H](Cc2c[nH]c3ccccc23)NC(=O)[C@H](CC(=O)O)NC(=O)[C@H](Cc2ccc(OCC(=O)O)cc2)NC(=O)[C@H](CCCCNC(=N)N)NC(=O)CSC[C@@H](C(=O)NCC(=O)NCCOCCOCC(=O)N[C@@H](CCN)C(=O)NCCCCCCCCCCC(=O)O)NC(=O)[C@H](CCCNC(N)=O)NC(=O)[C@H](C(C)C)NC(=O)[C@H](CC2CCCCC2)NC(=O)[C@H](CCN)NC(=O)[C@@H](CC(C)C)NC(=O)[C@H](C)N(C)C(=O)[C@H](C(C)C)NC(=O)[C@H](Cc2ccc(-c3ccccc3)cc2)NC1=O` [Example 2179] ({CH2CO}-[hArg]Y(Carboxymethyl)DWL[Bip]V[NMeA][dL][Dab][Cha]V[Cit]CG[AEEA][Dab][Aun]-OH; thioether N-14): the IC50 was 11.2 nM.

As usually defined, the IC50 is the midpoint of a concentration-inhibition curve.
